From patent US20200282010A1, “IMMUNOGENIC COMPOSITIONS AND USES THEREFOR” (Epiaxis Therapeutics Pty Ltd, priority 2017, published 2020)

How the values were obtained:
[1] = test system: CD8^+ T-cells of melanoma patient liquid biopsies; experiment: Immunofluorescence of EOMES, TBET and PD-1 (exhaustion signature) in patient CD8+ T-cells; format: cell-based, human; conditions: CR, SD and PD cohorts, vehicle or PMA/CI, FIG. 4
Source text: FIG. 4 is graphical representation showing expression of EOMES, TBET and PD-1 in CD8^+ T-cells of melanoma patient liquid biopsies in the presence and absence of PKCθi peptide inhibitor. A) CD8^+ T-cells were isolated from melanoma patient liquid biopsies (CR=complete response, SD=Stable Disease, PD=progression of disease) and were stimulated with PMA/CI and pre-clinically screened with either vehicle control or PKCθi peptide inhibitor. Samples were then fixed and immunofluorescence microscopy was performed on these cells with primary antibodies for EOMES, TBET, and PD-1. Representative images for each dataset are shown. Graph represents the TCFI for PD1, TNFI for EOMES and TNFI for TBET measured using ImageJ to select the nucleus minus background (n=>20 cells/sample). Graphs depicting the % inhibition or induction based on protein expression where also plotted for each protein target relative to untreated sample.
Metastatic Melanoma Biopsies were pre-enriched using the RosetteSep™ method to isolate CTCs by employing the RosetteSep™ Human CD8 enrichment Kit (15063, StemCell Technologies) to isolate CD8+ cells and red blood cells, using density gradient centrifugation with SepMate™-50 (IVD) density gradient tubes (85450, StemCell Technologies) and Lymphoprep™ density gradient medium (07861, StemCell Technologies). […] Digital images were analysed using ImageJ software (ImageJ, NIH, Bethesda, Md., USA) to determine the either the Total Nuclear Fluorescent Intensity (TNFI), the Total Cytoplasmic Fluorescent Intensity (TCFI) or total Fluorescent Intensity (TFI). The plot-profile feature of ImageJ was used to plot the fluorescence signal intensity along a single line spanning the nucleus (n=5 lines per a nucleus, 5 individual cells) using the average fluorescent signal intensity for the indicated pair of antibodies was plotted for each point on the line with SE. […] For each plot-profile the PCC was determined. […]

[2] = test system: CD8^+ T-cells isolated from melanoma patient's bloods; experiment: Immunofluorescence of IFN-γ and TNF-α in patient CD8+ T-cells; format: cell-based, human; conditions: across all samples, particularly the stimulated samples; inhibitor 8 μm; FIG. 3
Method: FIG. 3 is a photographic representation depicting a PKC-θ resistance signature in CD8^+ T-cells. A-B) CD8s were isolated from melanoma patient liquid biopsies (CR=complete response, SD=Stable Disease, PD=progression of disease) and were stimulated with PMA/CI and pre-clinically screened with either vehicle control or PKCθi nuclear peptide inhibitor. Samples were fixed and immunofluorescence microscopy was performed on these cells with primary antibodies for ZEB1, PKC-θ, and CD8. Representative images for each dataset are shown. Graph represents the TNFI for PKC-Theta and TNFI for ZEB1 measured using ImageJ to select the nucleus minus background (n=>20 cells/sample). […] Graph represents the TNFI for TNF-α and TNFI for IFN-γ measured using ImageJ to select the nucleus minus background (n=>20 cells/sample). […]
Metastatic melanoma biopsies were pre-enriched using the RosetteSep™ method to isolate CTCs by employing the RosetteSep™ Human CD45 Depletion Kit (15162, Stemcell Technologies) to remove CD45+ cells and red blood cells, using density gradient centrifugation with SepMate™-50 (IVD) density gradient tubes (85450, Stemcell Technologies) and Lymphoprep™ density gradient medium (07861, Stemcell Technologies). […] Digital images were analysed using ImageJ software (ImageJ, NIH, Bethesda, Md., USA) to determine TNFI, TCFI or TFI. […]

RKEIDPPFRPKVK [PKCθi]
TBET expression [1]: enhancing | expression of EOMES ([1]; inhibitor 8 mm): inhibiting expression | expression of PD-1 ([1]; inhibitor 8 mm): inhibiting expression | expression of IFN-γ [2]: significant increase | expression of TNF-α [2]: significant increase
